# Source: patent US20240108641A1, “COMPOSITIONS FOR ORAL ADMINISTRATION OF ZOLEDRONIC ACID OR RELATED COMPOUNDS FOR TREATING DISEASE” (ANTECIP BIOVENTURES II LLC, priority 2012, published 2024)
# What was measured:
# [1] = tested on: knee pain (knee osteoarthritis and knee bone marrow lesions); test: clinical study in knee osteoarthritis with bone marrow lesions, VAS pain; format: in vivo, human; settings: 5 mg intravenous; for average VAS scores decreased from baseline: 3 months; for average VAS scores reduced as compared to placebo: three months
# Source text: Some embodiments related to joint pain, bone marrow lesions, and osteoarthritis were conceived as a result of analyzing data from a clinical study. Some of the results of this study were reported by Laslett et al. in Ann Rheum Dis 2012; 71:1322-1328. Some of the description and data reported below was not published prior to filing the present application. Fifty-two (52) patients with clinical knee osteoarthritis and knee bone marrow lesions (BML) were randomized to receive either intravenous zoledronic acid (5 mg) or placebo in a double blind fashion. All patients had to have at least one bone marrow lesion (BML) in the affected knee on magnetic resonance imaging (MRI). All patients had x-ray of the knee for determination of joint space narrowing (JSN), which was graded according to the Osteoarthritis Research Society International (OARSI) atlas. Patients had either no joint space narrowing (OARSI Grade 0), or greater degrees of joint space narrowing (OARSI Grade 1 and Grade 2). Twenty six patients were treated with zoledronic acid (8, 6, and 12 with OARSI Grades 0, 1, and 2, respectively). Twenty six patients received placebo (8, 8, and 10 with OARSI Grades 0, 1 and 2, respectively).
# Pain intensity was assessed at baseline and at three months, using a 100 mm visual analog scale (VAS), with zero representing no pain and 100 representing extreme pain. The change in pain intensity from baseline to 3 months was calculated.
# [2] = tested on: health-related quality of life (RAND-36); test: randomized placebo-controlled trial in chronic low back pain with Modic changes, RAND-36 quality of life; format: in vivo, human; settings: for RAND-36 Mental component, Unadjusted analyses Difference (95% CI) / RAND-36 Physical component, Unadjusted analyses Difference (95% CI) / Total RAND-36, Unadjusted analyses Difference (95% CI) / RAND-36 Mental component, Adjusted analyses Difference (95% CI) / RAND-36 Physical component, Adjusted analyses Difference (95% CI) / Total RAND-36, Adjusted analyses Difference (95% CI): ZA versus placebo; for RAND-36 Mental component, Adjusted analyses Difference (95% CI) / RAND-36 Physical component, Adjusted analyses Difference (95% CI) / Total RAND-36, Adjusted analyses Difference (95% CI): adjusted for baseline; for RAND-36 Mental component, Mean (SD) change / RAND-36 Mental component, Mean (SD) original values / RAND-36 Physical component, Mean (SD) change / RAND-36 Physical component, Mean (SD) original values / Total RAND-36, Mean (SD) change / Total RAND-36, Mean (SD) original values: single 5 mg IV infusion
# Procedure: A study was performed to evaluate the efficacy of a single intravenous infusion of 5 mg ZA in comparison with intravenous placebo infusion among patients with chronic low back pain (LBP) and Modic changes on MRI. This study was a double-blinded, randomized, placebo-controlled clinical trial in patients with low back pain (LBP). Patients were included in the study if they had low back symptoms for at least three months, an LBP of at least six (6) on a 10-cm Visual Analog Scale (VAS) or an Oswestry Disability Index (ODI) of at least 30%, and an M1, mixed M1/2 or M2 type change on MRI performed within six months at most prior to enrolment.
# After confirmation of eligibility patients were randomized to receive a single intravenous infusion of 5 mg zoledronic acid (n=20) or 100 ml saline as placebo (n=20) over a 15-minute period. Information on use of the concomitant medication and hospital admissions were recorded. Blood samples were taken for the assessment of safety, inflammatory mediators and markers of bone turnover at baseline, one month and one year.
# Clinical assessments were performed 14 days before enrolment (screening visit), and follow-up visits at one month and one year after the infusion. The primary outcome was the change in the intensity of LBP on VAS. Secondary outcomes included leg pain intensity, ODI, health-related quality of life assessed with RAND-36, patient-reported sick leaves and lumbar flexibility. These outcome measures were assessed at baseline and at each follow-up. Lumbar flexibility was evaluated using the fingers-to-floor and trunk side bending measures (in cm). The percentage of patients undergoing a 20% relative improvement, the proportion of patients reaching a VAS score of 40 or less in the primary outcome, and patient acceptable symptom state (PASS) were also assessed. Pain medication use was inquired about during the follow-up visits.
compound,measurement,setting,value
O=P(O)(O)C(O)(Cn1ccnc1)P(=O)(O)O [zoledronic acid],average VAS scores decreased from baseline,[1]; OARSI Grade 0,approximately 25 mm
same,average VAS scores decreased from baseline,[1]; OARSI Grade 1,~21 mm
same,average VAS scores decreased from baseline,[1]; OARSI Grade 2,9 mm
same,"Pain Reduction Compared to Placebo at Three Months, VAS Change",[1]; All patients,−4.8 mm
same,Change in VAS Pain Scores at Three Months,[1]; Baseline VAS < 50 mm,−7.3 mm
same,"Change in VAS Pain Scores at Three Months, Difference from Placebo",[1]; Baseline VAS < 50 mm,−0.6 mm
same,Change in VAS Pain Scores at Three Months,[1]; Baseline VAS ≥ 50 mm,−26.2 mm
same,"Change in VAS Pain Scores at Three Months, Difference from Placebo",[1]; Baseline VAS ≥ 50 mm,−9.0 mm
same,"Pain Reduction Compared to Placebo at Three Months, VAS Change",[1]; Baseline VAS ≥ 50 mm + OARSI Grade 0,−19.4 mm
same,Change in VAS Pain Scores at Three Months,[1]; OARSI Grade 0,−24.6 mm
same,"Change in VAS Pain Scores at Three Months, Difference from Placebo",[1]; OARSI Grade 0,−15.0 mm
same,Change in VAS Pain Scores at Three Months,[1]; OARSI Grades 1-2,−13.2 mm
same,"Change in VAS Pain Scores at Three Months, Difference from Placebo",[1]; OARSI Grades 1-2,−0.28 mm
same,average VAS scores reduced as compared to placebo,[1]; OARSI Grade 0,15 mm
same,average VAS scores reduced as compared to placebo,[1]; OARSI Grades 1-2,0.28
same,average VAS scores reduced as compared to placebo,[1]; baseline VAS 50 mm,9 mm
same,average VAS scores reduced as compared to placebo,[1]; baseline VAS<50 mm,0.6
same,"RAND-36 Mental component, Unadjusted analyses Difference (95% CI)",[2]; 1 mo.,2.0 (−2 to 6)
same,"RAND-36 Physical component, Unadjusted analyses Difference (95% CI)",[2]; 1 mo.,0.3 (−4 to 5)
same,"Total RAND-36, Unadjusted analyses Difference (95% CI)",[2]; 1 mo.,1.2 (−3 to 5)
same,"RAND-36 Mental component, Adjusted analyses Difference (95% CI)",[2]; 1 mo.,1.6 (−2 to 5)
same,"RAND-36 Physical component, Adjusted analyses Difference (95% CI)",[2]; 1 mo.,1.3 (−3 to 6)
same,"Total RAND-36, Adjusted analyses Difference (95% CI)",[2]; 1 mo.,1.3 (−3 to 5)
same,"RAND-36 Mental component, Mean (SD) change",[2]; 1 mo.,1.0 (6.1)
same,"RAND-36 Mental component, Mean (SD) original values",[2]; 1 mo.,50 (9)
same,"RAND-36 Physical component, Mean (SD) change",[2]; 1 mo.,0.1 (8.6)
same,"RAND-36 Physical component, Mean (SD) original values",[2]; 1 mo.,52 (9)
same,"Total RAND-36, Mean (SD) change",[2]; 1 mo.,0.6 (6.4)
same,"Total RAND-36, Mean (SD) original values",[2]; 1 mo.,51 (8)
same,"RAND-36 Mental component, Unadjusted analyses Difference (95% CI)",[2]; 12 mos.,3.5 (−2 to 9)
same,"RAND-36 Physical component, Unadjusted analyses Difference (95% CI)",[2]; 12 mos.,0.7 (−5 to 6)
same,"Total RAND-36, Unadjusted analyses Difference (95% CI)",[2]; 12 mos.,2.1 (−3 to 7)
same,"RAND-36 Mental component, Adjusted analyses Difference (95% CI)",[2]; 12 mos.,2.7 (−2 to 7)
same,"RAND-36 Physical component, Adjusted analyses Difference (95% CI)",[2]; 12 mos.,2.1 (−3 to 7)
same,"Total RAND-36, Adjusted analyses Difference (95% CI)",[2]; 12 mos.,2.2 (−2 to 7)
same,"RAND-36 Mental component, Mean (SD) change",[2]; 12 mos.,1.8 (9.0)
same,"RAND-36 Mental component, Mean (SD) original values",[2]; 12 mos.,51 (9)
same,"RAND-36 Physical component, Mean (SD) change",[2]; 12 mos.,0.3 (10)
same,"RAND-36 Physical component, Mean (SD) original values",[2]; 12 mos.,52 (8)
same,"Total RAND-36, Mean (SD) change",[2]; 12 mos.,1.0 (8.7)
same,"Total RAND-36, Mean (SD) original values",[2]; 12 mos.,51 (8)
